No end group written: not given here.
Key:
[1] = tested on: SD rats with bleomycin-induced pulmonary fibrosis; assay: Bleomycin-induced pulmonary fibrosis animal model; type: in vivo; conditions: bleomycin 5 mg/kg intratracheal, polypeptides 7.5 mg/kg subcutaneous twice a day, positive drug 25 mg/kg intragastric once a day, 14 days
Method: SD rats were anesthetized by intraperitoneal injection of 1 mL/100 g 4% chloral hydrate. After anesthesia, the rats were fixed and their necks were disinfected by using cotton with 75% alcohol. The skin of the rat neck was longitudinally cut with scissors, and the fascia and muscle were longitudinally bluntly torn with tweezers to expose the trachea. A syringe was inserted into the trachea to inject 5 mg/kg bleomycin, while a blank group was injected with an equal amount of normal saline. Then a rat plate was quickly erected and rotated, the rats' breathing was observed, the neck wound was sterilized after rotation and was sewn, and an amoxicillin anti-inflammatory drug was sprinkled on the suture. After the operation, the rats were put back into a dry and clean cage for resting, waiting was performed for awakening. The rats were awakened after about 1-2 hours, and then fed normally. On the 7th day after modeling, modeling group animals randomly fell into a model group, a Nintedanib positive drug group, polypeptide I, II, III and IV dosage groups, and a normal control group, and the groups were administered separately for an administration cycle of 14 days. Living situations of rats were observed every day and their weights were weighed.

LX-2 cells = assay: Proliferation of LX-2 cells induced by TGF-β1 (MTT, in vitro hepatic fibrosis model); type: cell-based; conditions: polypeptide 1 μmol/L, TGF-β1 10 ng/mL, 48 hours; for OD value: MTT, 570 nm
Method: LX-2 cells were cultured in 1640 medium containing 10% FBS, and cultured in an incubator with 5% CO2 at 37° C. The medium was replaced every two days, and subcultured according to the cell density. The LX-2 cells in a logarithmic growth phase were digested with 0.25% pancreatin to make cell suspension. The density of the cells was adjusted to 4×10^5 cells/mL, and the cells were inoculated into 96-well plates with 100 μL per well and cultured overnight. On the second day, TGF-β1 was added to induce the proliferation and activation of the LX-2 cells, and the polypeptide drugs were administrated at 1 μmol/L. TGF-β1 (10 ng/mL) was added to each group except the blank group. The cells were cultured in the incubator for 48 hours, and then 10 μL of MTT was added to each well. The MTT was removed after 4 hours, and 150 μL of DMSO was added for reaction for 5 min. An OD value was measured by a microplate reader at 570 nm.

[2] = tested on: SD rats with renal fibrosis; assay: Renal fibrosis animal model (ureter ligation), TGF-β1 in serum; type: in vivo; conditions: 7.5 mg/kg subcutaneous twice a day, 14 days, vs model group; FIG. 4
Method: A renal fibrosis animal model was established. SD rats were anesthetized with 4% chloral hydrate, injected with 1 mL/100 g intraperitoneally, fixed to an operation board, and sterilized in an operation area for later use. […] Muscular layers and abdominal walls were sewed layer by layer, the suture was disinfected with alcohol. After SD rats woke up, the rats were put into a cage for feeding. In the blank group, ureter was not ligated, and other steps were the same. Then, the animals fell into a blank group, a model group, and polypeptide administration groups, and the administration was started on the second day after the operation, twice a day for 14 days. After administration for 14 days, blood was taken and supernatant was taken to detect the content of TGF-β1 in serum. [table]

[3] = tested on: cardiac fibroblasts of rats; assay: Proliferation of cardiac fibroblasts of rats (MTT, in vitro myocardial fibrosis model); type: cell-based; conditions: 1 μmol/L; for Optical density values, 12 hours / Optical density values, 24 hours / Optical density values, 48 hours: MTT, 570 nm; for inhibition of the proliferation of cardiac fibroblasts of rats: at 24 hours and 48 hours
Method: The inhibitory effect of a polypeptide on cardiac fibroblasts of rats was detected by MTT assay. Cells were cultured in a DMEM medium containing 10% of FBS, the cytoplasm was made into 1×10^5/mL cell suspension, and 100 μL per well was inoculated into a 96-well plate. After the cells adhered to the wall, the medium was replaced with a serum-free DMEM medium, and the serum-free medium was discarded after 24 hours. The cells were cultured with different polypeptides of 1 μmol/L, and 5 multiple wells were set for each concentration. After 12, 24 and 48 hours separately, 10 μL of MTT was added to each well. After 4 hours, MTT was sucked out, and 150 μL of DMSO was added to each well. After reaction for 5 min, an OD value was measured at 570 nm by a microplate reader.

myelofibrosis model mice = assay: Myelofibrosis model induced by rh EPO; type: in vivo, Kunming mice; set-up: WBC / Hb / MCV / RDW: unit not given here; conditions: 10 mg/kg subcutaneous twice a day, 28 days; for content of TGF-β1 in serum: mouse serum, vs model group, FIG. 5; for Hb / MCV / RDW / WBC: peripheral blood
Method: There were 10 mice in each group. The normal control group was injected with normal saline (0.3 mL for each mouse), and the remaining groups were injected with rh EPO (0.1 unit/gram, body weight, 0.3 mL for each mouse) intraperitoneally every day. After induction for two days, drug therapy was started, subcutaneous injection was given twice a day, and after continuous administration for 28 days, the mouse heart was punctured for blood extraction, some blood was used for peripheral blood analysis, some blood was centrifuged, and the supernatant was taken to measure the content of TGF-β1 in the serum of mice. [table]

skin fibrosis model mice = assay: Skin fibrosis model induced by bleomycin, HYP in skin tissue; type: in vivo, C57/BL black mice; conditions: skin tissue of the mouse back; 10 mg/kg subcutaneous twice a day, 28 days, vs model group; FIG. 6
Method: Bleomycin (10 μg/mL) was injected subcutaneously every day for 28 days to form skin fibrosis. During the modeling period, the administration groups were given polypeptide drugs every day for treatment, with 10 mice in each group. After modeling, the mice were killed on the next day, and the skin tissue of the mouse back was taken to detect the content of HYP in the skin tissue. [table]

streptococcus pneumoniae = assay: Mouse pneumonia model, bacterial pneumonia; type: in vivo, BALB/C mice; conditions: average values±standard deviation
Excerpt: (§1) A mouse pneumonia model was successfully established by using a nasal drip method. BALB/C mice with a body weight of 18-24 g were selected, and then anesthetized with ether on day 0, day 1 and day 2, respectively, prepared streptococcus pneumoniae bacteria solution, adenovirus concentrated solution, mycoplasma pneumoniae, chlamydia pneumoniae, protozoa and pneumonia fungi were slowly dropped into the nasal cavity of the mice, so that the bacteria solutions entered the trachea and bronchi, and the bacteria solutions were prevented from flowing into the esophagus during the operation to avoid inactivation of the bacteria solutions, so that the mouse pneumonia model was established. After the model was successfully established, the polypeptide according to the present disclosure was administered, as shown in FIG. 7 and Table 9. […] The experimental results are represented on the basis of average values±standard deviation.

adenovirus = assay: Mouse pneumonia model, viral pneumonia; type: in vivo, BALB/C mice; conditions: average values±standard deviation
Excerpt: as §1

mycoplasma pneumoniae = assay: Mouse pneumonia model, mycoplasma pneumonia; type: in vivo, BALB/C mice; conditions: average values±standard deviation
Excerpt: as §1

chlamydia pneumoniae = assay: Mouse pneumonia model, chlamydia pneumonia; type: in vivo, BALB/C mice; conditions: average values±standard deviation
Excerpt: as §1

protozoa = assay: Mouse pneumonia model, protozoal pneumonia; type: in vivo, BALB/C mice; conditions: average values±standard deviation
Excerpt: as §1

pneumonia fungi = assay: Mouse pneumonia model, fungal pneumonia; type: in vivo, BALB/C mice; conditions: average values±standard deviation
Excerpt: as §1

pulmonary infections = assay: Mouse pneumonia model, pneumonia caused by pulmonary infections; type: in vivo, BALB/C mice; conditions: average values±standard deviation
Excerpt: as §1

Sequence	Survival rate (%) [1] [%]	inhibition of proliferation and activation of LX-2 cells, difference from model group (LX-2 cells)	OD value (LX-2 cells)	content of TGF-β1 in serum [2]	Optical density values, 12 hours [3]	Optical density values, 24 hours [3]	Optical density values, 48 hours [3]	inhibition of the proliferation of cardiac fibroblasts of rats [3]	Hb (myelofibrosis model mice)	MCV (myelofibrosis model mice)	RDW (myelofibrosis model mice)	WBC (myelofibrosis model mice)	expression of HYP in the skin tissue (skin fibrosis model mice)	Inhibitory effect on pulmonary infections, Bacterial pneumonia (streptococcus pneumoniae)	Inhibitory effect on pulmonary infections, Viral pneumonia (adenovirus)	Inhibitory effect on pulmonary infections, Mycoplasma pneumonia (mycoplasma pneumoniae)	Inhibitory effect on pulmonary infections, Chlamydia pneumonia (chlamydia pneumoniae)	Inhibitory effect on pulmonary infections, Protozoal pneumonia (protozoa)	Inhibitory effect on pulmonary infections, Fungal pneumonia (pneumonia fungi)	Inhibitory effect on pulmonary infections, Pneumonia caused by pulmonary infections (pulmonary infections)	further results
RGADRAGGGGPRCWRGE [Polypeptide I]	78.6	significantly different from the model group (*P<0.05)	0.66 ± 0.02	highly significantly different from the model group (**P<0.01)	0.326 ± 0.006	0.392 ± 0.008	0.580 ± 0.012	could inhibit the proliferation	143 ± 23	52 ± 4	31 ± 2	5.97 ± 1.76	highly significantly different from the model group (***P<0.001)	43.83 ± 7.59	58.00 ± 6.84	41.48 ± 5.55	45.18 ± 7.46	48.16 ± 5.46	45.65 ± 9.68	52.47 ± 7.88	content of TGF-β1 in serum (myelofibrosis model mice): highly significantly different from the model group (**P<0.01)
RGADRAGGGGPRCWCGE (cysteine pairing not given here) [Polypeptide II]	85.7	highly significantly different from the model group (**P<0.01)	0.59 ± 0.02	highly significantly different from the model group (***P<0.001)	0.325 ± 0.004	0.377 ± 0.015	0.518 ± 0.015	could inhibit the proliferation	151 ± 19	51 ± 9	26 ± 3	5.61 ± 1.43	highly significantly different from the model group (***P<0.001)	49.25 ± 9.48	70.33 ± 9.27	54.69 ± 5.72	57.81 ± 5.21	63.60 ± 6.16	65.32 ± 3.07	66.15 ± 5.87	–
RGADRAGGGGPRCYRGE [Polypeptide III]	78.6	significantly different from the model group (*P<0.05)	0.63 ± 0.03	highly significantly different from the model group (**P<0.01)	0.329 ± 0.012	0.402 ± 0.012	0.612 ± 0.018	could inhibit the proliferation	145 ± 17	53 ± 8	28 ± 1	5.79 ± 1.23	highly significantly different from the model group (*P<0.05)	42.29 ± 8.76	65.49 ± 9.94	43.93 ± 5.34	54.40 ± 5.41	64.29 ± 8.07	62.88 ± 5.49	56.18 ± 3.31	content of TGF-β1 in serum (myelofibrosis model mice): highly significantly different from the model group (**P<0.01)

Source: patent US12404303B2, “Polypeptide and use thereof” (NANJING ANJI BIOLOGICAL TECHNOLOGY CO., LTD., priority 2019, dated 2025)
